Experiments:
BRG-1 = target: T1, BRG-1 (Homo sapiens, UniProt P51532); assay: ATPase catalytic activity assay (ADP-Glo), BRG-1; type: biochemical; conditions: Table 10, read-out: BRG1 IC50
T1 construct: made in house; host or cells: High Five insect cells
Method in brief: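 In this in vitro format, BRG-1 hydrolysis product ADP is detected via a two-step ADP-Glo workup (ATP removal, then ADP-to-ATP conversion with luciferase detection) followed by a luminescence read.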

BRM = target: T2, BRM (Homo sapiens, UniProt P51531); assay: ATPase catalytic activity assay (ADP-Glo), BRM; type: biochemical; conditions: Table 10; for Ratio (BRG1 IC50 (μM) divided by BRM IC50 (μM)): ATPase assay, selectivity BRG1/BRM; for IC50: ATPase catalytic activity assay (ADP-Glo)
T2 construct: made in house; host or cells: High Five insect cells
Method in brief: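 ADP-Glo luminescence measures ADP produced by BRM ATPase (30 nM) during 1 h at room temperature. ATP is 400 μM, with 20 nM salmon sperm DNA as cofactor. Buffer: 20 mM Tris pH 8, 20 mM MgCl2, 50 mM NaCl, 0.1% Tween-20, 1 mM DTT.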

T2 sequence (P51531 whole entry): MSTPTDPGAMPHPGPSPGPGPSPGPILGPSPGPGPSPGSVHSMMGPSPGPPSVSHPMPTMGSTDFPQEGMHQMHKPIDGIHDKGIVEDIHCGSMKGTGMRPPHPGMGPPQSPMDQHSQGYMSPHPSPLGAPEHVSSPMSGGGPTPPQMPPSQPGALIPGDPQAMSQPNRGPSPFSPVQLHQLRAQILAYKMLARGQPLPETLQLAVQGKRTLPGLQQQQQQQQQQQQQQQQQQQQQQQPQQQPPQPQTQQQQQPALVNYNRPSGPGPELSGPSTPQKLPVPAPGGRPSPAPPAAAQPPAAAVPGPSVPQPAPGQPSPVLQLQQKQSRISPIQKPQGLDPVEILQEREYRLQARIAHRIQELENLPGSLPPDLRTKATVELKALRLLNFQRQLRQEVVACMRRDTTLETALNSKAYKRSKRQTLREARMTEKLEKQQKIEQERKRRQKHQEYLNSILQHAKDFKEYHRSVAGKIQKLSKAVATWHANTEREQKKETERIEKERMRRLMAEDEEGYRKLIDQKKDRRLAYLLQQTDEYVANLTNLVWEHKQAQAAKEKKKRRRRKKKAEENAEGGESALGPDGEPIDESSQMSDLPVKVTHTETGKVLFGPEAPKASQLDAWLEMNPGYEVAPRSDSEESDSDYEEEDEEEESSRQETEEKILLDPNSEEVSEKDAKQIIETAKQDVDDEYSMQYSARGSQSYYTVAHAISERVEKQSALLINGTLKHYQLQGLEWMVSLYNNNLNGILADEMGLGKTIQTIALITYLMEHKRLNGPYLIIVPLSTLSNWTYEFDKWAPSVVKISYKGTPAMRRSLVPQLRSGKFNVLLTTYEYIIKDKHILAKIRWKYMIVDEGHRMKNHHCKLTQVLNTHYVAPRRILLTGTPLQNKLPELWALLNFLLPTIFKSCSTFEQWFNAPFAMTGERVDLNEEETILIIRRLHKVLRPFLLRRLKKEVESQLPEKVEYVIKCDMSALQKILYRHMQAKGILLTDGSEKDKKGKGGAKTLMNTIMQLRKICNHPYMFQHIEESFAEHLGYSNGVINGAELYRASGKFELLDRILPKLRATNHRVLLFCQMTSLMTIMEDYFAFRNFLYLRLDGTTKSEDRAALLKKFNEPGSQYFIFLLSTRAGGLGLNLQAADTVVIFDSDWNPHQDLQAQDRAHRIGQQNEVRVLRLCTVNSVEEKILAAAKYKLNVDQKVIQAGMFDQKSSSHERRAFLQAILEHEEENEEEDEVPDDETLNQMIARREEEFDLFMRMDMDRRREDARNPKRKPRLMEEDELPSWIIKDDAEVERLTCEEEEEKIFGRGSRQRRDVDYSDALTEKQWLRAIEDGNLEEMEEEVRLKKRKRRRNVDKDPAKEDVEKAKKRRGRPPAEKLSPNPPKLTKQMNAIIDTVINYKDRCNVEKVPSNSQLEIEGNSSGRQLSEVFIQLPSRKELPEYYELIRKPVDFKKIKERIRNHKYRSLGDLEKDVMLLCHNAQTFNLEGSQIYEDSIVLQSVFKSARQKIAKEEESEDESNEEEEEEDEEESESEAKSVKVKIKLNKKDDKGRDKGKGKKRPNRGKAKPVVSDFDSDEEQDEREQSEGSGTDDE
T1 sequence (P51532 whole entry): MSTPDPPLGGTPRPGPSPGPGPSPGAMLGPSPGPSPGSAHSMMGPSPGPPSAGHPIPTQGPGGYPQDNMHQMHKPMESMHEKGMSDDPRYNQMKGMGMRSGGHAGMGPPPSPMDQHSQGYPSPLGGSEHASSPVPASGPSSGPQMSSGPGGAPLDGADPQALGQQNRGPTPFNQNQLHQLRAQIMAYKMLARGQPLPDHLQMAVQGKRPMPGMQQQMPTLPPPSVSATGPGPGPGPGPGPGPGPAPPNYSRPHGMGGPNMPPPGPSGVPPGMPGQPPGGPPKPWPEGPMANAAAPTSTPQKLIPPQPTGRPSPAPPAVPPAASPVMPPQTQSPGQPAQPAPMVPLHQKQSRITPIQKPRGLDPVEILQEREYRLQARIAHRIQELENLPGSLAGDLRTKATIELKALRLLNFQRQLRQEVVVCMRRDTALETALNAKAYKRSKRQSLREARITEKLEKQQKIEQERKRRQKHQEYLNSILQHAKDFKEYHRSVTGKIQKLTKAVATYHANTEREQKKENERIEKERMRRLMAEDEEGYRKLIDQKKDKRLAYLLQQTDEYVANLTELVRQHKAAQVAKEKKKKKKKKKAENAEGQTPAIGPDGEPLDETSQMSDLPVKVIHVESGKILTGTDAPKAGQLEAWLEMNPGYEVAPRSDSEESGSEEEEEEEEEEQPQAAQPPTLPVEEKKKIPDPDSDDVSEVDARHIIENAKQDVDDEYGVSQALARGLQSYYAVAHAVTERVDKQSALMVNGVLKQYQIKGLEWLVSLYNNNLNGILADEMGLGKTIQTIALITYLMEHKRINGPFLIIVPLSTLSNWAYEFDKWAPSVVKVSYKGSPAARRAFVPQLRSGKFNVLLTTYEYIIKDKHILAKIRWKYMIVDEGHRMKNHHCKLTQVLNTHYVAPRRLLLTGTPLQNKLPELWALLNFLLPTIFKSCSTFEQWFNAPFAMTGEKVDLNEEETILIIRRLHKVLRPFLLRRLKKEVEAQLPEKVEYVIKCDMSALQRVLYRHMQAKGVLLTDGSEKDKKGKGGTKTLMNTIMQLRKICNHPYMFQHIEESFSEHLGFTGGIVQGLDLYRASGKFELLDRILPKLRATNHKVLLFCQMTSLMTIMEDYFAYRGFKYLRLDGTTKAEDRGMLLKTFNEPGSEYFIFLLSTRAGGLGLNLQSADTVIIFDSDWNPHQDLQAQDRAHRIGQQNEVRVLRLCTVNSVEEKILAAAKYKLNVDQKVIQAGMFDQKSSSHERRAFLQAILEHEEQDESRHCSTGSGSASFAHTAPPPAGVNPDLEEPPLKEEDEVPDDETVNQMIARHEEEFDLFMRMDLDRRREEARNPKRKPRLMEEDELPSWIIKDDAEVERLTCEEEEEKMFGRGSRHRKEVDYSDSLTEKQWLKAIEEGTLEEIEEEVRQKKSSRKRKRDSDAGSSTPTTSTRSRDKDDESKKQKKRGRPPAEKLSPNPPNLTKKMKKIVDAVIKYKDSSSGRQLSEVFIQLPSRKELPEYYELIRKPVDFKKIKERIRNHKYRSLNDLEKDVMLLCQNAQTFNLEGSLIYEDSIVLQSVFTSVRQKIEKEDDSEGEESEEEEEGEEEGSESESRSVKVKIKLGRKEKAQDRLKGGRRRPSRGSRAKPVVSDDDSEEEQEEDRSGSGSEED

Row | Compound | IC50 (BRG-1) | Ratio (BRG1 IC50 (μM) divided by BRM IC50 (μM)) (BRM) | IC50 (BRM)
1 | O=C(NCc1cc2nc(N3CCCc4c(OC5CC5)ccnc43)ccc2cn1)c1cc(F)c2c(c1)S(=O)(=O)[C@@H](F)CCO2 [Compound 18] | 24 nM | 15.43 | 1.5 nM
2 | COc1cccc(-c2ccc3cnc(CNC(=O)c4cc(F)c5c(c4)S(=O)(=O)[C@@H](F)COC5)cc3n2)n1 [Compound 270] | 174 nM | 22.02 | 8.9 nM
3 | O=C(NCc1cc2nc(N3CCOc4ccc(N5CC(F)(F)C5)nc43)ccc2cn1)c1cc(F)c2c(c1)S(=O)(=O)[C@@H](F)CCO2 [Compound 254] | 190 nM | 21.58 | 8 nM
4 | COc1nc(C)ccc1-c1ccc2cnc(CNC(=O)c3cc(F)c4c(c3)S(=O)(=O)[C@@H](F)CCO4)cc2n1 [Compound 245] | 166 nM | 17.91 | 7.8 nM
5 | Cc1cc(C(=O)NCc2cc3nc(N4CCOc5ccc(C(F)F)nc54)ccc3cn2)cc2c1COC[C@H](F)S2(=O)=O [Compound 237] | 172 nM | 25.36 | 7.6 nM
6 | Cc1ccc(-c2ccc3cnc(CNC(=O)c4cc(F)c5c(c4)S(=O)(=O)[C@@H](F)COC5)cc3n2)c(OC(F)F)n1 [Compound 73] | 57.1 nM | 20.62 | 2.8 nM
7 | O=C(NCc1cc2cc(N3CCOc4cc(C5CC5)cnc43)ccc2cn1)c1cc(F)c2c(c1)S(=O)(=O)[C@@H](F)CCO2 [Compound 141] | 76.3 nM | 16.19 | 4.7 nM
8 | O=C(NCc1cc2nc(N3CCOc4cc(N5CC[C@H]5CF)cnc43)ccc2cn1)c1cc(Br)c2c(c1)S(=O)(=O)[C@@H](F)CCO2 [Compound 323] | 164 nM | 13.90 | 11.8 nM
9 | COc1nc(C(F)F)ccc1-c1ccc2cnc(CNC(=O)c3cc(Cl)c4c(c3)S(=O)(=O)[C@@H](F)CCO4)cc2n1 [Compound 306] | 360 nM | 32.74 | 10.3 nM
10 | COCCOc1nccc2c1CCCN2c1ccc2cnc(CNC(=O)c3cc(F)c4c(c3)S(=O)(=O)[C@@H](F)CCO4)cc2n1 [Compound 295] | 174 nM | 16.68 | 9.8 nM
11 | O=C(NCc1cc2nc(N3CCOc4cc(F)cnc43)ccc2cn1)c1cc(F)c2c(c1)S(=O)(=O)[C@@H](F)CCO2 [Compound 102] | 95.4 nM | 26.75 | 3.6 nM
12 | O=C(NCc1cc2nc(-c3cccc(C4CC4)n3)ccc2cn1)c1cc(F)c2c(c1)S(=O)(=O)[C@@H](F)CCOC2 [Compound 327] | 40.7 nM | – | 3.5 nM
13 | O=C(NCc1cc2nc(N3CCOc4ccc([C@H](F)CF)nc43)ccc2cn1)c1cc(F)c2c(c1)S(=O)(=O)[C@@H](F)CCO2 [Compound 279] | 164 nM | 18.19 | 9.2 nM
14 | O=C(NCc1cc2cc(-c3cncc(C4CC4)n3)ccc2cn1)c1cc(F)c2c(c1)S(=O)(=O)[C@@H](F)CCO2 [Compound 230] | 153 nM | 18.99 | 7.2 nM
15 | O=C(NCc1cc2nc(N3CCCc4c(OC5CC5)ncc(F)c43)ccc2cn1)c1cc(F)c2c(c1)S(=O)(=O)[C@@H](F)CCO2 [Compound 262] | 166 nM | 19.49 | 8.5 nM
16 | O=C(NCc1cc2nc(N3CCOc4cc(C#CC5CC5)cnc43)ccc2cn1)c1cc(F)c2c(c1)S(=O)(=O)[C@@H](F)COC2 [Compound 309] | 115 nM | 11.01 | 10.5 nM
17 | COc1ccc(-c2ccc3cnc(CNC(=O)c4cc(F)c5c(c4)S(=O)(=O)[C@@H](F)CCO5)cc3n2)nc1[C@@H]1CC1(F)F [Compound 273] | 210 nM | 23.61 | 8.9 nM

Row | Compound | IC50 (BRG-1) | Ratio (BRG1 IC50 (μM) divided by BRM IC50 (μM)) (BRM) | IC50 (BRM)
18 | CN(CC(F)F)c1cnc2c(c1)OCCN2c1ccc2cnc(CNC(=O)c3cc(F)c4c(c3)S(=O)(=O)[C@@H](F)CCO4)cc2n1 [Compound 105] | 36.7 nM | 9.68 | 3.7 nM
19 | C[C@@H]1CCN1c1cnc2c(c1)OCCN2c1ccc2cnc(CNC(=O)c3cc(F)c4c(c3)S(=O)(=O)[C@@H](F)CCO4)cc2n1 [Compound 47] | 54.3 nM | 16.31 | 2.3 nM
20 | O=C(NCc1cc2nc(-c3cccc([C@@H]4CC4(F)F)n3)ccc2cn1)c1cc(F)c2c(c1)S(=O)(=O)[C@@H](F)COC2 [Compound 253] | 171 nM | 22.99 | 8 nM
21 | O=C(NCc1cc2nc(N3CCOc4ccc([C@H]5C[C@H]5F)nc43)ccc2cn1)c1cc(F)c2c(c1)S(=O)(=O)[C@@H](F)CCO2 [Compound 277] | 90 nM | 19.61 | 9.1 nM
22 | O=C(NCc1cc2nc(N3CCOc4cc(N5CC[C@H](F)C5)cnc43)ccc2cn1)c1cc(F)c2c(c1)S(=O)(=O)[C@@H](F)CCO2 [Compound 183] | 89.9 nM | 12.89 | 5.7 nM
23 | COc1nc(C(F)F)ccc1-c1ccc2cnc(CNC(=O)c3cc(C)c4c(c3)S(=O)(=O)[C@@H](F)COC4)cc2n1 [Compound 131] | 70.8 nM | 17.91 | 4.5 nM
24 | O=C(NCc1cc2nc(N3CCOc4cc([C@H]5CC5(F)F)cnc43)ccc2cn1)c1cc(F)c2c(c1)S(=O)(=O)[C@@H](F)COC2 [Compound 116] | 48.3 nM | 12.04 | 4 nM
25 | O=C(NCc1cc2nc(N3CCOc4cc(C5CC5)cnc43)ccc2cn1)c1cc(F)c2c(c1)S(=O)(=O)[C@@H](F)CCO2 [Compound 40] | 38.5 nM | 16.70 | 2 nM
26 | Cc1cc2c(-c3ccc4cnc(CNC(=O)c5cc(F)c6c(c5)S(=O)(=O)[C@@H](F)CCO6)cc4n3)ccnc2n1C [Compound 267] | 91.8 nM | 10.49 | 8.8 nM
27 | O=C(NCc1cc2nc(N3CCOc4c(OCC5CC5)ccnc43)ccc2cn1)c1cc(F)c2c(c1)S(=O)(=O)[C@@H](F)CCO2 [Compound 113] | 83.9 nM | 21.12 | 4 nM
28 | COc1nc(-c2ccc3cnc(CNC(=O)c4cc(Cl)c5c(c4)S(=O)(=O)[C@@H](F)COC5)cc3n2)ccc1C(F)F [Compound 301] | 175 nM | 18.66 | 10 nM
29 | C[C@@H]1[C@@H](F)CN1c1cnc2c(c1)OCCN2c1ccc2cnc(CNC(=O)c3cc(F)c4c(c3)S(=O)(=O)[C@@H](F)CCO4)cc2n1 [Compound 80] | 48.4 nM | 16.24 | 3 nM
30 | O=C(NCc1cc2nc(N3CCOc4cc(C5(C(F)F)CC5)cnc43)ccc2cn1)c1cc(F)c2c(c1)S(=O)(=O)[C@@H](F)CCO2 [Compound 70] | 39.6 nM | 12.79 | 2.7 nM
31 | COc1nscc1-c1ccc2cnc(CNC(=O)c3cc(F)c4c(c3)S(=O)(=O)[C@@H](F)CCO4)cc2n1 [Compound 288] | 203 nM | 26.09 | 9.6 nM
32 | [2H]C1([2H])Oc2c(F)cc(C(=O)NCc3cc4nc(-c5ccc(C(F)F)nc5OC)ccc4cn3)cc2S(=O)(=O)[C@@]([2H])(F)C1([2H])[2H] [Compound 84] | 95.7 nM | 25.97 | 3.1 nM
33 | O=C(NCc1cc2nc(N3CCOc4ccc([C@H]5C[C@@H]5C(F)F)nc43)ccc2cn1)c1cc(F)c2c(c1)S(=O)(=O)[C@@H](F)COC2 [Compound 26] | 39.1 nM | 21.77 | 1.7 nM
34 | C[C@@H]1CN(c2cccc(-c3ccc4cnc(CNC(=O)c5cc(OC(F)F)c6c(c5)S(=O)(=O)[C@@H](F)CCO6)cc4n3)n2)C[C@H](C)O1 [Compound 316] | 325 nM | 17.77 | 18.3 nM
